We go through 52 sequences from the supplement of paper PMC11208160.
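Note: IS621 bridge recombinase in Escherichia coli cells against a fixed T5 target plasmid.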

A short description of the data set: recombinant UMI read abundance after kanamycin selection (control-corrected) (log10(CPM+1)); higher = more efficient recombination; extreme values may be limits of the assay; sequences stand for … in AGTGCAGAGAAAATCGGCCAGTTTTCTCTGCCTGCAGTCCGCATGCCGTGGGACCCCTTGGGTTCTAACCTGTTGCCTAGATTTATGCAGCGGACTGCCTTTCTCCCAAAGTGATAAACCGG…AGGTTGGTTTCACT; site = the 11-nt donor. In short, it runs like this:
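Values, expressed as log10(CPM+1), derive from recombinant UMI counts converted to CPM, averaged across replicates and scaled by control-derived factors. Plating was with IPTG (0.07 mM) plus kanamycin or unselected, two replicates each. The screen pooled donor and donor-binding-loop pairs for the IS621 bridge recombinase in Escherichia coli.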
“TGTGCGGCATGGACCGGTTTTCCCGGTAATCCGTATTTGCT (site TCTGCGGCTAG)”: the “recombinant UMI read abundance (log10)” value turned out to be 0.00448.
With “TGTGCGGCATGGACCGGTTTTCCCGGTAATCCGTATTTGCT (site TGTGCGGCTAG)” the figure was 0.57; with “TGTGCGGCATGGACCGGTTTTCCCGGTAATCCGTATTTGCT (site TTTGCGGCTAG)”, 0.00385.
With “TGTGGTCCATGGACCGGTTTTCCCGGTAATCCGTATTTGTC (site TGTGGTCCTGA)” the figure was 0; with “TGTTACCCATGGACCGGTTTTCCCGGTAATCCGTATTTGTA (site TGTTACCCTTA)”, 0.0142; with “TGTTACCCATGGACCGGTTTTCCCGGTAATCCGTATTTGTA (site TGTTCCCCTTA)”, 0.0074.
The result for “TGTTACCCATGGACCGGTTTTCCCGGTAATCCGTATTTGTA (site TGTTGCCCTTA)” reads 0.0124; that for “TGTTACCCATGGACCGGTTTTCCCGGTAATCCGTATTTGTA (site TGTTTCCCTTA)”, 0.
With “TGTTAGCCATGGACCGGTTTTCCCGGTAATCCGTATTTGAC (site TGTTAGCCTGT)”, the “recombinant UMI read abundance (log10)” value was determined as 0.
On to “TGTTCCCCATGGACCGGTTTTCCCGGTAATCCGTATTTGCA (site TGTTCCCCTTA)”, for which the “recombinant UMI read abundance (log10)” value was found to be 0.0177.
For “TGTTCCCCATGGACCGGTTTTCCCGGTAATCCGTATTTGCA (site TGTTCCCCTTC)”, the “recombinant UMI read abundance (log10)” value came to 0.0115.
The result for “TGTTCCCCATGGACCGGTTTTCCCGGTAATCCGTATTTGCA (site TGTTCCCCTTG)” reads 0.256.
The result for “TGTTCCCCATGGACCGGTTTTCCCGGTAATCCGTATTTGCA (site TGTTCCCCTTT)” reads 0.0133; that for “TGTTCCCCATGGACCGGTTTTCCCGGTAATCCGTATTTGTA (site AGTTCCCCTTA)”, 0.355.
With “TGTTCCCCATGGACCGGTTTTCCCGGTAATCCGTATTTGTA (site CGTTCCCCTTA)”, the “recombinant UMI read abundance (log10)” value was found to be 0.193.
For “TGTTCCCCATGGACCGGTTTTCCCGGTAATCCGTATTTGTA (site GGTTCCCCTTA)”, the “recombinant UMI read abundance (log10)” value worked out at 0.00981.
Consider “TGTTCCCCATGGACCGGTTTTCCCGGTAATCCGTATTTGTA (site TATTCCCCTTA)”, for which the “recombinant UMI read abundance (log10)” value is 0.0123.
Turning to “TGTTCCCCATGGACCGGTTTTCCCGGTAATCCGTATTTGTA (site TCTTCCCCTTA)”, the “recombinant UMI read abundance (log10)” value amounted to 0.0139.
With “TGTTCCCCATGGACCGGTTTTCCCGGTAATCCGTATTTGTA (site TGATCCCCTTA)” the figure was 0.0165.
With “TGTTCCCCATGGACCGGTTTTCCCGGTAATCCGTATTTGTA (site TGCTCCCCTTA)”, the “recombinant UMI read abundance (log10)” value came to 0.377.
The result for “TGTTCCCCATGGACCGGTTTTCCCGGTAATCCGTATTTGTA (site TGGTCCCCTTA)” reads 0; that for “TGTTCCCCATGGACCGGTTTTCCCGGTAATCCGTATTTGTA (site TGTACCCCTTA)”, 0.0227.
With “TGTTCCCCATGGACCGGTTTTCCCGGTAATCCGTATTTGTA (site TGTCCCCCTTA)” the figure was 0.136.
With “TGTTCCCCATGGACCGGTTTTCCCGGTAATCCGTATTTGTA (site TGTGCCCCTTA)” the figure was 0.013.
In the case of “TGTTCCCCATGGACCGGTTTTCCCGGTAATCCGTATTTGTA (site TGTTACCCTTA)”, the “recombinant UMI read abundance (log10)” value came to 0.177.
With “TGTTCCCCATGGACCGGTTTTCCCGGTAATCCGTATTTGTA (site TGTTCACCTTA)” the figure was 0.00592; with “TGTTCCCCATGGACCGGTTTTCCCGGTAATCCGTATTTGTA (site TGTTCCACTTA)”, 0.0238; with “TGTTCCCCATGGACCGGTTTTCCCGGTAATCCGTATTTGTA (site TGTTCCCCTAA)”, 0.0105.
“TGTTCCCCATGGACCGGTTTTCCCGGTAATCCGTATTTGTA (site TGTTCCCCTCA)”: the “recombinant UMI read abundance (log10)” value came out at 0.0333.
With “TGTTCCCCATGGACCGGTTTTCCCGGTAATCCGTATTTGTA (site TGTTCCCCTGA)” the figure was 0; with “TGTTCCCCATGGACCGGTTTTCCCGGTAATCCGTATTTGTA (site TGTTCCCCTTA)”, 0.625; with “TGTTCCCCATGGACCGGTTTTCCCGGTAATCCGTATTTGTA (site TGTTCCCCTTC)”, 0.00924.
The result for “TGTTCCCCATGGACCGGTTTTCCCGGTAATCCGTATTTGTA (site TGTTCCCCTTG)” reads 0.00318; that for “TGTTCCCCATGGACCGGTTTTCCCGGTAATCCGTATTTGTA (site TGTTCCCCTTT)”, 0.0256; that for “TGTTCCCCATGGACCGGTTTTCCCGGTAATCCGTATTTGTA (site TGTTCCGCTTA)”, 0.0259.
Consider “TGTTCCCCATGGACCGGTTTTCCCGGTAATCCGTATTTGTA (site TGTTCCTCTTA)”, for which the “recombinant UMI read abundance (log10)” value worked out at 0.105.
The result for “TGTTCCCCATGGACCGGTTTTCCCGGTAATCCGTATTTGTA (site TGTTCGCCTTA)” reads 0.0106.
The result for “TGTTCCCCATGGACCGGTTTTCCCGGTAATCCGTATTTGTA (site TGTTCTCCTTA)” reads 0.0643; that for “TGTTCCCCATGGACCGGTTTTCCCGGTAATCCGTATTTGTA (site TGTTGCCCTTA)”, 0.0058; that for “TGTTCCCCATGGACCGGTTTTCCCGGTAATCCGTATTTGTA (site TGTTTCCCTTA)”, 0.381.
The result for “TGTTCCCCATGGACCGGTTTTCCCGGTAATCCGTATTTGTA (site TTTTCCCCTTA)” reads 0.0217; that for “TGTTGCCCATGGACCGGTTTTCCCGGTAATCCGTATTTGTA (site TGTTACCCTTA)”, 0.032.
In the case of “TGTTGCCCATGGACCGGTTTTCCCGGTAATCCGTATTTGTA (site TGTTCCCCTTA)”, the “recombinant UMI read abundance (log10)” value came out at 0.324.
With “TGTTGCCCATGGACCGGTTTTCCCGGTAATCCGTATTTGTA (site TGTTGCCCTTA)” the figure was 0.0196; with “TGTTGCCCATGGACCGGTTTTCCCGGTAATCCGTATTTGTA (site TGTTTCCCTTA)”, 0.0108; with “TGTTGTTCATGGACCGGTTTTCCCGGTAATCCGTATTTGAA (site TGTTGTTCTTT)”, 0.472.
On to “TTAACTGCATGGACCGGTTTTCCCGGTAATCCGTATTTGTG (site TTAACTGCTCA)”, for which the “recombinant UMI read abundance (log10)” value was 0.697.
With “TTAACTGCATGGACCGGTTTTCCCGGTAATCCGTATTTGTG (site TTACCTGCTCA)” the figure was 0.00413; with “TTAACTGCATGGACCGGTTTTCCCGGTAATCCGTATTTGTG (site TTAGCTGCTCA)”, 0.00337; with “TTAACTGCATGGACCGGTTTTCCCGGTAATCCGTATTTGTG (site TTATCTGCTCA)”, 0.0133.
With “TTAAGCCCATGGACCGGTTTTCCCGGTAATCCGTATTTGGT (site TTAAGCCCTAC)” the figure was 0.174; with “TTAATTCCATGGACCGGTTTTCCCGGTAATCCGTATTTGTT (site TTAATTCCTAA)”, 0.0021.
